Patent publication US11820729B2 (Johnson & Johnson Consumer Inc., priority 2014, dated 2023)

How the values were obtained:
[1] = system: 16-hour salivary biofilm on pellicle coated hydroxyapatite pegs; assay: Prevention assay: prevention of bacterial attachment to pellicle coated hydroxyapatite pegs, ATP bioluminescence; type: cell-based
Procedure: The formulations in Examples 2-4, 6, 8 and 9 were prepared and test for prevention of bacterial attachment using the prevention assay. In this assay hydroxyapatite-coated polystyrene peg plate (96 pegs, N=8 per group) was exposed to saliva for one minute to form a pellicle at a temperature of 35 C. Then, for each formulation, eight pegs (N=8) were pre-treated for ten minutes with the formulation using an orbital shaker set to 500 RPM at room temperature. As a negative control, eight pegs (N=8) were pre-treated for ten minutes with sterile water. Next, a 16-hour salivary biofilm was grown on these polystyrene peg plates at a temperature of 35 C.
After all treatments were complete, the biofilm from each peg was neutralized and rinsed. The biofilm was harvested via sonication using a Q-Sonica Q700 Ultrasonic Liquid Processor with 431MP4-00 microplate horn Damper and 0.5:1 reverse gain booster (Q-Sonica, Newtown, Conn.). Using a Celsis Rapid Detection RapiScreen kit (Celsis International PLC, Chicago, Ill.), the bacteria were lysed with Celsis Luminex and then the adenosine triphosphate (ATP) from the lysed bacteria was measured using the bioluminescence marker Celcis Luminate and a Centro LB 960 Microplate Luminometer supplied by Berthold Technologies (Wildbad, Germany). Data were reported in log RLU (relative light units) where decreasing log RLUs indicated fewer viable bacteria remained on the biofilm substrate. The log RLUs for the prevention assay are shown on Tables 2, 4, 6, 10, 14, and 16.

[2] = system: S. mutans biofilm; assay: S. mutans single species kill assay (in-vitro biofilm model); type: cell-based; details: simple solution formulas (Table 13), 30 second treatment
Procedure: The formulations listed in Example 7 were prepared and tested using an in-vitro single species S. mutans biofilm model. A 24-hour S. mutans biofilm is grown on a polystyrene peg plate (96 pegs, N=6 per test group). The pegs were subsequently treated for thirty seconds with each of formulations H and I, as well as positive and negative controls. The treatment is applied as a single thirty (30) second treatment. The positive control is a commercially available essential oil mouth rinse. The negative control is sterile water. After treatment the biofilm is neutralized and rinsed. The biofilm is harvested via sonication using a Misonix Ultrasonic Liquid Processor (Farmingdale, N.Y.). Using a Celsis Rapid Detection RapiScreen kit (Celsis International PLC, Chicago), the bacteria are lysed with Celsis Luminex and then the adenosine triphosphate (ATP) from the lysed bacteria is measured using the bioluminescence marker LB960 Microplate Luminometer supplied by Berthold (Wildbad, Germany). Data are reported in log RLU (relative light units) where decreasing log RLUs indicates fewer viable bacteria remaining on the biofilm substrate.

[3] = HPLC quantification of compound remaining after storage at 50° C.; type: physicochemical; details: HPLC
Procedure: Briefly, formulations containing either LAE or any of the 26 compounds and standards are diluted into a solution of 50% acetonitrile and 50% water. They are evaluated on an Agilent HPLC using a Zorbax ion exchange column. In the method, 10 uL of the sample is withdrawn and ran through the HPLC with a 40% potassium phosphate (molarity at pH 3.0) 60% acetonitrile mobile phase. […] The molecule peak is auto integrated using the Online Agilent HPLC software. Comparisons are made to the standard to identify the % of compound remaining following storage.

[4] = simple solution solvent base formulas (Table 11)

**Q.** What does the source list for CCCCCCCCCCCC(=O)NC(CCCNC(=N)N)C(=O)NCC (centres unmarked) [Compound 9, [amino({[4-dodecanamido-4-(ethylcarbamoyl)butyl]amino})methylidene]azanium]?
**A.** effect of presence of essential oils (EOs) on prevention of bacterial attachment ([1]; 0.15 wt % compound 9, Table 6): has no effect; effect of surfactant on prevention of bacterial attachment ([1]; 0.15 wt % compound 9, Table 6): has a major effect; prevention of bacterial attachment in full formula ([1]; 0.15 wt % in alcohol free base, compositions K-R): Prevents Bacterial Attachment in Full Formula; efficacy at preventing bacterial attachment ([1]; 0.15 wt % in water): demonstrated efficacy at preventing bacterial attachment; prevention of bacterial attachment compared with LAE ([1]; 0.15 wt %, 21.6% alcohol and water-based solution): equally as efficacious as LAE; prevention of bacterial attachment in alcohol free full formulations ([1]; Table 15 formulations, water as the only solvent): Prevent Bacterial Attachment; prevention of bacterial attachment in alcohol-free full formulations ([1]; Table 17 formulations, water and propylene glycol as solvents): Prevent Bacterial Attachment; most effective concentration for prevention of bacterial attachment ([1]; compound 9 in simple water solution (Table 1 compositions)): 0.3 wt %; concentration effect on prevention of bacterial attachment ([1]; compound 9 in water, 0.01-0.4 w/w %): dose dependent response; ability to prevent bacterial attachment [1, 4]: have the ability to prevent bacterial attachment; preventing bacterial attachment the best [1, 4]: preventing bacterial attachment the best; log reduction in S. mutans [2]: do not Result in More than a One Log Reduction in S. mutans; % of molecule maintained out to 8 weeks when stored at 50° C. ([3]; 8 weeks, 50° C., formulations of Table 7): at least 90%; stability in an alcohol-free formulation ([3]; storage at 50° C.): Maintains Stability
